Assay: Phase I safety and tolerability (TEAEs, DLTs, MTD, DRDE) in patients with advanced solid tumors
Assay type: in vivo, human
Method: This 2-part, open-label, phase I study was conducted at the MD Anderson Cancer Center in Texas, USA and the Cancer Hospital Chinese Academy of Medical Sciences in Beijing, China. […] This was followed by a dose-expansion phase, the primary objective of which was to confirm the safety and tolerability of tinengotinib at the DRDE. Secondary objectives were to characterize the pharmacokinetics and preliminary efficacy of tinengotinib.
Dose escalation was guided by an adaptive Bayesian logistic regression model using the Escalation with Overdose Control principle.[6],[7] Study data (including DLTs, grade 2 adverse events during cycle 1, and pharmacokinetic data) were reviewed by the sponsor and trial investigators at each dose level and used to guide dose-escalation decisions. MTD was based on the Bayesian model, but with consideration given to available safety and tolerability data. DRDE was based on an evaluation of all available data (safety, clinical activity, and pharmacokinetics).
After determination of the DRDE, the dose-expansion phase was opened to further characterize safety and pharmacokinetics, and to assess preliminary efficacy.
Routine safety assessments of adverse events, laboratory tests (hematology, coagulation, biochemistry, and urinalysis), vital signs, and 12-lead electrocardiograms were performed. Adverse events were graded according to the National Cancer Institute Common Terminology Criteria for Adverse Events (CTCAE), version 5.0.

[1] = dose escalation (n = 40), any grade
[2] = dose escalation (n = 40), grade ≥3
[3] = dose expansion (12 mg, n = 8), any grade
[4] = dose expansion (12 mg, n = 8), grade ≥3

## tinengotinib
Dose escalation 12 mg (n=12)
  Patients with study drug-related TEAE leading to study drug permanent discontinuation: 1 (8.3) n (%)
  Patients with study drug-related grade ≥3 TEAE: 6 (50.0) n (%)
  Patients with study drug-related treatment-emergent SAE: 0 n (%)
  Patients with treatment-emergent SAE: 5 (41.7) n (%)
Dose escalation 15 mg (n=6)
  Patients with AE: 6 (100) n (%)
  Patients with TEAE: 6 (100) n (%)
  Patients with TEAE leading to death: 0 n (%)
  Patients with TEAE leading to dose adjustment/temporary interruption: 4 (66.7) n (%)
  Patients with TEAE leading to study drug permanent discontinuation: 3 (50.0) n (%)
  Patients with grade ≥3 TEAE: 5 (83.3) n (%)
  Patients with study drug-related TEAE: 5 (83.3) n (%)
  Patients with study drug-related TEAE leading to dose adjustment/temporary interruption: 3 (50.0) n (%)
  Patients with study drug-related TEAE leading to study drug permanent discontinuation: 0 n (%)
  Patients with study drug-related grade ≥3 TEAE: 3 (50.0) n (%)
  Patients with study drug-related treatment-emergent SAE: 1 (16.7) n (%)
  Patients with treatment-emergent SAE: 4 (66.7) n (%)
[1]
  Study drug-related TEAE: 33 (82.5) No. (%)
  Study drug-related TEAE: Alanine aminotransferase increased: 4 (10.0) No. (%)
  Study drug-related TEAE: Aspartate aminotransferase increased: 4 (10.0) No. (%)
  Study drug-related TEAE: Blood thyroid-stimulating hormone increased: 4 (10.0) No. (%)
  Study drug-related TEAE: Decreased appetite: 5 (12.5) No. (%)
  Study drug-related TEAE: Diarrhea: 15 (37.5) No. (%)
  Study drug-related TEAE: Dry mouth: 5 (12.5) No. (%)
  Study drug-related TEAE: Hypertension: 19 (47.5) No. (%)
  Study drug-related TEAE: Myalgia: 5 (12.5) No. (%)
  Study drug-related TEAE: Nausea: 11 (27.5) No. (%)
  Study drug-related TEAE: Palmar-plantar erythrodysesthesia syndrome: 10 (25.0) No. (%)
  Study drug-related TEAE: Proteinuria: 6 (15.0) No. (%)
  Study drug-related TEAE: Stomatitis: 9 (22.5) No. (%)
  Study drug-related TEAE: Vomiting: 10 (25.0) No. (%)
  Study drug-related serious TEAE: 5 (12.5) No. (%)
[2]
  Study drug-related TEAE: 16 (40.0) No. (%)
  Study drug-related TEAE: Alanine aminotransferase increased: 0 No. (%)
  Study drug-related TEAE: Aspartate aminotransferase increased: 0 No. (%)
  Study drug-related TEAE: Blood thyroid-stimulating hormone increased: 0 No. (%)
  Study drug-related TEAE: Decreased appetite: 0 No. (%)
  Study drug-related TEAE: Diarrhea: 1 (2.5) No. (%)
  Study drug-related TEAE: Dry mouth: 0 No. (%)
  Study drug-related TEAE: Hypertension: 9 (22.5) No. (%)
  Study drug-related TEAE: Myalgia: 0 No. (%)
  Study drug-related TEAE: Nausea: 1 (2.5) No. (%)
  Study drug-related TEAE: Palmar-plantar erythrodysesthesia syndrome: 1 (2.5) No. (%)
  Study drug-related TEAE: Proteinuria: 0 No. (%)
  Study drug-related TEAE: Stomatitis: 2 (5.0) No. (%)
  Study drug-related TEAE: Vomiting: 0 No. (%)
  Study drug-related serious TEAE: 0 No. (%)
Dose escalation total (n=40)
  Patients with AE: 39 (97.5) n (%)
  Patients with TEAE: 39 (97.5) n (%)
  Patients with TEAE leading to death: 0 n (%)
  Patients with TEAE leading to dose adjustment/temporary interruption: 24 (60.0) n (%)
  Patients with TEAE leading to study drug permanent discontinuation: 12 (30.0) n (%)
  Patients with grade ≥3 TEAE: 26 (65.0) n (%)
  Patients with study drug-related TEAE: 33 (82.5) n (%)
  Patients with study drug-related TEAE leading to dose adjustment/temporary interruption: 18 (45.0) n (%)
  Patients with study drug-related TEAE leading to study drug permanent discontinuation: 6 (15.0) n (%)
  Patients with study drug-related grade ≥3 TEAE: 16 (40.0) n (%)
  Patients with study drug-related treatment-emergent SAE: 5 (12.5) n (%)
  Patients with treatment-emergent SAE: 18 (45.0) n (%)
Dose expansion 12 mg (n=8)
  Patients with AE: 8 (100) n (%)
  Patients with TEAE: 8 (100) n (%)
  Patients with TEAE leading to death: 0 n (%)
  Patients with TEAE leading to dose adjustment/temporary interruption: 7 (87.5) n (%)
  Patients with TEAE leading to study drug permanent discontinuation: 0 n (%)
  Patients with grade ≥3 TEAE: 5 (62.5) n (%)
  Patients with study drug-related TEAE: 8 (100) n (%)
  Patients with study drug-related TEAE leading to dose adjustment/temporary interruption: 7 (87.5) n (%)
  Patients with study drug-related TEAE leading to study drug permanent discontinuation: 0 n (%)
  Patients with study drug-related grade ≥3 TEAE: 5 (62.5) n (%)
  Patients with study drug-related treatment-emergent SAE: 3 (37.5) n (%)
  Patients with treatment-emergent SAE: 4 (50.0) n (%)
[3]
  Study drug-related TEAE: 8 (100) No. (%)
  Study drug-related TEAE: Alanine aminotransferase increased: 1 (12.5) No. (%)
  Study drug-related TEAE: Aspartate aminotransferase increased: 1 (12.5) No. (%)
  Study drug-related TEAE: Blood thyroid-stimulating hormone increased: 3 (37.5) No. (%)
  Study drug-related TEAE: Decreased appetite: 2 (25.0) No. (%)
  Study drug-related TEAE: Diarrhea: 1 (12.5) No. (%)
  Study drug-related TEAE: Dry mouth: 0 No. (%)
  Study drug-related TEAE: Hypertension: 5 (62.5) No. (%)
  Study drug-related TEAE: Myalgia: 0 No. (%)
  Study drug-related TEAE: Nausea: 0 No. (%)
  Study drug-related TEAE: Palmar-plantar erythrodysesthesia syndrome: 4 (50.0) No. (%)
  Study drug-related TEAE: Proteinuria: 0 No. (%)
  Study drug-related TEAE: Stomatitis: 5 (62.5) No. (%)
  Study drug-related TEAE: Vomiting: 0 No. (%)
[4]
  Study drug-related TEAE: 5 (62.5) No. (%)
  Study drug-related TEAE: Alanine aminotransferase increased: 0 No. (%)
  Study drug-related TEAE: Aspartate aminotransferase increased: 0 No. (%)
  Study drug-related TEAE: Blood thyroid-stimulating hormone increased: 0 No. (%)
  Study drug-related TEAE: Decreased appetite: 0 No. (%)
  Study drug-related TEAE: Diarrhea: 0 No. (%)
  Study drug-related TEAE: Dry mouth: 0 No. (%)
  Study drug-related TEAE: Hypertension: 4 (50.0) No. (%)
  Study drug-related TEAE: Myalgia: 0 No. (%)
  Study drug-related TEAE: Nausea: 0 No. (%)
  Study drug-related TEAE: Palmar-plantar erythrodysesthesia syndrome: 0 No. (%)
  Study drug-related TEAE: Proteinuria: 0 No. (%)
  Study drug-related TEAE: Stomatitis: 0 No. (%)
  Study drug-related TEAE: Vomiting: 0 No. (%)
  Study drug-related serious TEAE: 0 No. (%)
Orally once daily, 28-day cycle
  Dose recommended for dose expansion (DRDE): 12 mg
Total (n = 48), any grade
  Study drug-related TEAE: 41 (85.4) No. (%)
  Study drug-related TEAE: Alanine aminotransferase increased: 5 (10.4) No. (%)
  Study drug-related TEAE: Aspartate aminotransferase increased: 5 (10.4) No. (%)
  Study drug-related TEAE: Blood thyroid-stimulating hormone increased: 7 (14.6) No. (%)
  Study drug-related TEAE: Decreased appetite: 7 (14.6) No. (%)
  Study drug-related TEAE: Diarrhea: 16 (33.3) No. (%)
  Study drug-related TEAE: Dry mouth: 5 (10.4) No. (%)
  Study drug-related TEAE: Hypertension: 24 (50.0) No. (%)
  Study drug-related TEAE: Myalgia: 5 (10.4) No. (%)
  Study drug-related TEAE: Nausea: 11 (22.9) No. (%)
  Study drug-related TEAE: Palmar-plantar erythrodysesthesia syndrome: 14 (29.2) No. (%)
  Study drug-related TEAE: Proteinuria: 6 (12.5) No. (%)
  Study drug-related TEAE: Stomatitis: 14 (29.2) No. (%)
  Study drug-related TEAE: Vomiting: 10 (20.8) No. (%)
Total (n = 48), grade ≥3
  Study drug-related TEAE: 21 (43.8) No. (%)
  Study drug-related TEAE: Alanine aminotransferase increased: 0 No. (%)
  Study drug-related TEAE: Aspartate aminotransferase increased: 0 No. (%)
  Study drug-related TEAE: Blood thyroid-stimulating hormone increased: 0 No. (%)
  Study drug-related TEAE: Decreased appetite: 0 No. (%)
  Study drug-related TEAE: Diarrhea: 1 (2.1) No. (%)
  Study drug-related TEAE: Dry mouth: 0 No. (%)
  Study drug-related TEAE: Hypertension: 13 (27.1) No. (%)
  Study drug-related TEAE: Myalgia: 0 No. (%)
  Study drug-related TEAE: Nausea: 1 (2.1) No. (%)
  Study drug-related TEAE: Palmar-plantar erythrodysesthesia syndrome: 1 (2.1) No. (%)
  Study drug-related TEAE: Proteinuria: 0 No. (%)
  Study drug-related TEAE: Stomatitis: 2 (4.2) No. (%)
  Study drug-related TEAE: Vomiting: 0 No. (%)
  Study drug-related serious TEAE: 0 No. (%)
Total (n=48)
  Patients with AE: 47 (97.9) n (%)
  Patients with TEAE: 47 (97.9) n (%)
  Patients with TEAE leading to death: 0 n (%)
  Patients with TEAE leading to dose adjustment/temporary interruption: 31 (64.6) n (%)
  Patients with TEAE leading to study drug permanent discontinuation: 12 (25.0) n (%)
  Patients with grade ≥3 TEAE: 31 (64.6) n (%)
  Patients with study drug-related TEAE: 41 (85.4) n (%)
  Patients with study drug-related TEAE leading to dose adjustment/temporary interruption: 25 (52.1) n (%)
  Patients with study drug-related TEAE leading to study drug permanent discontinuation: 6 (12.5) n (%)
  Patients with study drug-related grade ≥3 TEAE: 21 (43.8) n (%)
  Patients with study drug-related treatment-emergent SAE: 8 (16.7) n (%)
  Patients with treatment-emergent SAE: 22 (45.8) n (%)
